Assay results: patent US10709710B2, “Composition comprising uric acid for the treatment treated with mechanical thrombectomy” (Hospital Clinic de Barcelona, priority 2017, dated 2020)

Legend:
[1] = test system: ischemic brain stroke patients treated with mechanical thrombectomy; assay: Treatment with uric acid of ischemic brain stroke patients treated with intravenous thrombolysis and mechanical thrombectomy; type: in vivo, humans
From the text: Example 1. Treatment with uric acid of ischemic brain stroke patients treated with intravenous thrombolysis and mechanical thrombectomy.
In total, 45 ischemic brain stroke patients were enrolled in this study and received the combination of thrombolytic treatment (using rt-PA) and mechanical thrombectomy. […] The patients of this study were recruited at eight centres and, in all the cases, the corresponding informed consent was obtained from the patient or its legal representative.
(§1) All patients that were selected for the study received one standard dose ([…]) of rtPA (in the present case, intravenous alteplase) within the 4.5 hours following the brain stroke. During infusion of intravenous alteplase, patients were assigned randomly in a 1:1 proportion to the uric acid group or to the placebo group, so that they received 500 ml of intravenous solution of 1000 mg of uric acid or placebo (physiologic serum comprising 0.1% […] and 5% mannitol), respectively, both contained in glass bottles covered with opaque yellow bags tag in identical manner. Said treatment with uric acid or placebo was applied during 90 minutes.
The mechanical thrombectomy procedure was carried in accordance to the procedure pointed out in the REVASCAT assay (Jovin T G, Chamorro A, Cobo E, de Miguel M A, Molina C A, Rovira A, San Román L, Serena J, Abilleira S, Ribó M, Millán M, Urra X, Cardona P, López-Cancio E, Tomasello A, Castaño C, Blasco J, Aja L, Dorado L, Quesada H, Rubiera M, Hernandez-Pérez M, Goyal M, Demchuk A M, von Kummer R, Gallofré M, Dávalos A; REVASCAT Trial Investigators.. Thrombectomy within 8 hours after symptom onset in ischemic stroke. N Engl J Med. 2015; 372:2296-306) and it was started before the 90 minutes of the infusion of the composition with uric acid or placebo had elapsed.
To determine if the revascularization was successful the conventional technique of digital angiography by subtraction was used. Successful vessel revascularization was considered that with grade 2b (indicating reperfusion of from 50% to 90% of the damaged zone), or grade 3 (complete reperfusion of the damaged zone) in accordance with the modified Thrombolysis in Cerebral Infarction (hereinafter, mTICI) scale of 0 to 3.
In addition, certain parameters (death, incidence of intracranial hemorrhages and incidence of gout attacks) were measured in order to determine the safety of the new treatment (treatment of the present invention).

[2] = test system: patients with ischemic brain stroke not treated with mechanical thrombectomy; assay: Same type of study in ischemic brain stroke patients not treated with mechanical thrombectomy; type: in vivo, humans
Method: as §1
The same type of study was carried out with other subpopulations with ischemic brain stroke (not treated with mechanical thrombectomy, but the rest of the treatment and the procedure was the same).

[3] = test system: occlusion of the middle cerebral artery; details: adult rat; uric acid 24 hours before the occlusion or 1 hour after the reperfusion; cited from earlier work
[4] = test system: thromboembolism model of focal cerebral ischemia; details: rat thromboembolism model; synergic with rtPA; cited from earlier work
[5] = test system: patients with acute stroke; details: URICO-ICTUS phase 2b/3, cited from earlier work
hippocampus cells = details: culture of hippocampus cells; cited from earlier work
[6] = in words, with mechanical thrombectomy
[7] = with mechanical thrombectomy, uric acid group n = 24
[8] = Patients which consume alcohol, uric acid n = 10
[9] = Patients which have suffered previous brain stroke, uric acid n = 30
[10] = Patients with atrial fibrillation, uric acid n = 35
[11] = Patients with cardioembolism, uric acid n = 86
[12] = Patients with coronary disease, uric acid n = 31
[13] = Patients with diabetes, uric acid n = 55
[14] = Patients with dyslipidaemia, uric acid n = 81
[15] = Smoking patients, uric acid n = 35
[16] = Women patients, uric acid n = 100
[17] = general population not treated with mechanical thrombectomy, uric acid n = 187
[18] = in words, general population without mechanical thrombectomy

With O=c1[nH]c(=O)c2[nH]c(=O)[nH]c2[nH]1 [Uric acid, uric acid] the “successfulness in the revascularization, uric acid vs placebo” value ([1]; in words, mTICI grade 2b or 3) was “no significant differences”, the “complete independence of the patients at 90 days (Barthel index score of 95-100), uric acid vs placebo” value [1, 6] was “statistically significant and surprising improvement” and the “good results at 90 days (mRS score of between 0-2), uric acid vs placebo” value [1, 6] was “statistically significant and surprising improvement”. The “growth of the infarcted zone at 72 hours from the treatment, uric acid vs placebo” value [1, 6] was “statistically significant and surprising improvement”, the “rest of measured parameters, uric acid vs placebo” value [1, 6] was “positive and improvement tendency” and the “safety: death, incidence of intracranial hemorrhages and incidence of gout attacks, uric acid vs placebo” value [1, 6] was “no differences were observed”. The “mTICI Score 0, number of patients” value ([1]; revascularization by digital subtraction angiography, uric acid 1000 mg i.v. + rtPA + mechanical thrombectomy, n = 24) was 3, the “mTICI Score 0, share of group (in parentheses)” value ([1]; revascularization by digital subtraction angiography, uric acid group n = 24) was “(13)” and the “mTICI Score 1, number of patients” value ([1]; uric acid group n = 24) was 0. The “mTICI Score 2a, number of patients” value ([1]; uric acid group n = 24) was 1, the “mTICI Score 2a, share of group (in parentheses)” value ([1]; uric acid group n = 24) was “(4)” and the “mTICI Score 2b, number of patients” value ([1]; uric acid group n = 24) was 7. For the same compound, the “mTICI Score 2b, share of group (in parentheses)” value ([1]; uric acid group n = 24) was “(29)”, the “mTICI Score 2b/3 (successful revascularization), number of patients” value ([1]; uric acid group n = 24) was 20 and the “mTICI Score 2b/3 (successful revascularization), share of group (in parentheses)” value ([1]; uric acid group n = 24) was “(83)”. For the same compound, the “mTICI Score 3, number of patients” value ([1]; uric acid group n = 24) was 13, the “mTICI Score 3, share of group (in parentheses)” value ([1]; uric acid group n = 24) was “(54)” and the “mRS score of between 0-2 at 90 días, %” value ([1]; with mechanical thrombectomy, uric acid 1000 mg i.v. + rtPA, n = 24) was “(66.6) %”. For the same compound, the “Barthel index score of 95-100 at 90 days, %” value (“Barthel index score … %” below) [1, 7] was “(66.6) %”, the “Growth of the infarcted zone at 72 hours of the treatment, mean” value [1, 7] was -33.2 mL and the “NIHSS score 0 at 90 days, %” value [1, 7] was “(37.5) %”. For the same compound, the “Volume of the infarcted zone at 72 hours of the treatment measured by means of magnetic resonance image of the brain, mean” value [1, 7] was 17.2, the “Barthel index score … %” value ([2]; Men patients, uric acid n = 87) was “(50.6) %” and the “mRS score of between 0-2 at 90 dies, %” value ([2]; Men patients, uric acid n = 87) was “(51.7) %”. The “Barthel index score … %” value [2, 8] was “(20) %”, the “mRS score of between 0-2 at 90 dies, %” value [2, 8] was “(40) %” and the “Barthel index score … %” value [2, 9] was “(40) %”. For the same compound, the “mRS score of between 0-2 at 90 dies, %” value [2, 9] was “(43.3) %”, the “Barthel index score … %” value [2, 10] was “(31.4) %” and the “mRS score of between 0-2 at 90 dies, %” value [2, 10] was “(42.9) %”. For the same compound, the “Barthel index score … %” value [2, 11] was “(45.3) %”, the “mRS score of between 0-2 at 90 dies, %” value [2, 11] was “(48.8) %” and the “Barthel index score … %” value [2, 12] was “(51.6) %”. For the same compound, the “mRS score of between 0-2 at 90 dies, %” value [2, 12] was “(45.2) %”, the “Barthel index score … %” value [2, 13] was “(45.8) %” and the “mRS score of between 0-2 at 90 dies, %” value [2, 13] was “(45.5) %”. The “Barthel index score … %” value [2, 14] was “(50.6) %”, the “mRS score of between 0-2 at 90 dies, %” value [2, 14] was “(49.4) %” and the “mRS score of between 0-2 at 90 dies, %” value ([2]; Patients with hypertension (arterial pressure over 160 mmHg), uric acid n = 131) was “(48.9) %”. The “Barthel index score … %” value ([2]; Patients with hypertension, uric acid n = 131) was “(45.8) %”, the “mRS score of between 0-2 at 90 dies, %” value ([2]; Patients with large vessel arteriosclerosis (arterial stenosis +2250%), uric acid n = 19) was “(31.6) %” and the “Barthel index score … %” value ([2]; Patients with large vessel arteriosclerosis, uric acid n = 19) was “(21.1) %”. The “Barthel index score … %” value [2, 15] was “(42.9) %”, the “mRS score of between 0-2 at 90 dies, %” value [2, 15] was “(50) %” and the “Barthel index score … %” value [2, 16] was “(42) %”. For the same compound, the “mRS score of between 0-2 at 90 dies, %” value [2, 16] was “(50) %”, the “Barthel index score … %” value [2, 17] was 45.6% and the “mRS score of between 0-2 at 90 dies, %” value [2, 17] was 44.7%. For the same compound, the “effect in the percentage of patients with Barthel index score 95-100” value [2, 18] was “only a minimal effect”, the “effect in the percentage of patients with an mRS score of between 0 and 2 at 90 days” value [2, 18] was “did not show a detectable effect” and the lipid peroxidation [3] was “reduces”. For the same compound, the “reactive oxygen species accumulation” value [3] was “suppresses”, the resulting cerebral infarction [3] was “significantly reduces” and the neuroprotective effect [4] was “neuroprotective”. For the same compound, the “safety of uric acid in combination with the standard thrombolytic treatment (alteplase)” value [5] was “safe”, the “proportion of patients with excellent results at 90 days” value ([5]; combined with alteplase) was “no change was seen” and the “protection against excitotoxic damage by glutamate” value (hippocampus cells) was “protects against excitotoxic damage by glutamate”.
